Measurements as given in patent publication US20180021395A1, “EUCOMMIA LEAF EXTRACT, AND PREPARATION METHOD AND USE THEREOF” (SICHUAN JIUZHANG BIOLOGICAL SCIENCE AND TECHNOLOGY CO., LTD, priority 2015, published 2018).
Marks after values point to notes of the source that are not given here.

Experiments:
[1] = system: psoriasis vulgaris model (transplanted psoriasis skin damage); assay: Psoriasis vulgaris model: SCID mice transplanted with patient psoriasis skin, HE histology and Baker scores; type: in vivo
Protocol: Female and male SCID mice were separately fed for one week, and allowed to adapt growing environment. Patients with psoriasis vulgaris or plaque-type psoriasis were chosen (indentifying the informed consent). […] Aseptic packaging was wrapped up with bandage macerated with normal saline, to prepare for transplantation. According to the body weight of SCID mice, 3% chloral hydrate (0.1 ml/10 g) was administrated, followed by skin preparation and unhair. […] After transplantation of skin, mice were raised in separated cages, and all processes were finished within 2 h. After 10 days, skin damage arounding was injected with PBMC (1×10^6/mouse) provided by transplantation supplier and treated with ConA. After two weeks, exterior packing was dismantled to observe the survival situation of skin and confirm the success of model establishment, and the successful model was used for further experiment. […] The administration was kept for 10 days. […] Skin damage was trimmed into suitable size, dehydrated, embedded, sliced, and stained with HE. […] Baker scores were calculated, and the difference in data of each group was compared. All values were processed using SPSS13.0 software, and the experimental results were presented as x±s. p<0.05 was considered to be a statistical difference. The mean of multi-samples was compared using analysis of variance.

[2] = system: cAMP and cGMP in serum; assay: Psoriasis vulgaris model: content and ratio of cAMP and cGMP in serum (ELISA); type: in vivo, SCID mice; settings: x ± s, n = 10
Source text: (§1) Female and male SCID mice were separately fed for one week, and allowed to adapt growing environment. Patients with psoriasis vulgaris or plaque-type psoriasis were chosen (indentifying the informed consent). Dermatochalasis containing 2 cm×2 cm psoriasis skin damage in patients was chosen to make a fusiform incision, and full-thickness of skin was cut and trimmed into free skin graft with a suitable thickness of 0.6 cm×0.6 cm. Aseptic packaging was wrapped up with bandage macerated with normal saline, to prepare for transplantation. According to the body weight of SCID mice, 3% chloral hydrate (0.1 ml/10 g) was administrated, followed by skin preparation and unhair. Epidermis was scissored and cut into fascia layer, and the trimmed skin graft was sutured using 3-0 silk thread and subjected to pressure dressing with cotton ball soaking with normal saline. After transplantation of skin, mice were raised in separated cages, and all processes were finished within 2 h. After 10 days, skin damage arounding was injected with PBMC (1×10^6/mouse) provided by transplantation supplier and treated with ConA. After two weeks, exterior packing was dismantled to observe the survival situation of skin and confirm the success of model establishment, and the successful model was used for further experiment.
The administration was kept for 10 days.
Before sacrificing guinea pigs, blood was taken and centrifuged under 2000r/rain, to collect serum. Using ELISA kit, optical density was detected as instructions in kit. The results were calculated by standard curve, and the ratio of cAMP/cGMP was calculated according to the results.
All values were processed using SPSS13.0 software, and the experimental results were presented as x±s. p<0.05 was considered to be a statistical difference. The mean of multi-samples was compared using analysis of variance.

[3] = system: VEGF; assay: Psoriasis vulgaris model: VEGF levels in serum; type: in vivo, SCID mice; settings: after 10 days administration, x ± s, n = 10
Source text: as §1, with “After two weeks, exterior packing was dismantled to observe the survival situation of skin and confirm the success of model establishment, and the successful model was used for further experiment.” left out
Before sacrificing guinea pigs, blood was taken and centrifuged under 2000r/rain, to collect serum. Using ELISA kit, optical density was detected as instructions in kit. The results were calculated by standard curve, and the ratio of cAMP/cGMP was calculated according to the results. […]

[4] = transplanted skin, HE stain, after 10 days administration
[5] = serum, ELISA, after 10 days administration

## COc1cc(C)c(/C=C/C(C)=C/C=C/C(C)=C/C(=O)O)c(C)c1C [Positive control, Acitretin A capsule]
[1]; 10 days administration, x ± s, n = 10
  Number of acanthocytes: 27.09 ± 8.83^a
[1]; surrounding superficial layer blood vessels in dermis, 200 times visual fields, 10 days administration, x ± s, n = 10
  Monocytes (count): 66.40 ± 9.28^a
[1]; test drugs 100 mg/kg intragastric once a day, positive control 2.25 mg/kg twice a day, 10 days, x ± s, n = 10
  Baker scores: 6.39 ± 1.53^a
[1]; [4]
  degree of parakeratosis under light microscope: middle degree of parakeratosis
  epidermis wooden stick-like hyperplasia: middle degree of wooden stick-like hyperplasia
  monocyte infiltration surrounding blood vessels in dermis: small amounts of monocyte infiltration
  punctiform granular layer: local visible punctiform granular layer and hyperkeratinization
  spinous layer thickness: 24-32 layers
[2]; ratio of serum contents
  cAMP/cGMP: 3.02 ± 0.08^ab
[2]; [5]
  cAMP in serum: 10.22 ± 0.73^ab pmol/m1
  cGMP in serum: 3.38 ± 0.20^ab pmol/m1
[3]
  VEGF levels in serum: 93.40 ± 6.54^ab pg/m1
